Laboratory results from publication PMC7470104, “Discovery of 3,6-disubstituted pyridazines as a novel class of anticancer agents targeting cyclin-dependent kinase 2: synthesis, biological evaluation and in silico insights” (Journal of Enzyme Inhibition and Medicinal Chemistry, 2020).
Read-outs that look alike come from different tables or passages of the source. Each block holds one molecule with its values, some of them ahead of it.

Legend:
T-47D cells [1] = experiment: SRB anti-proliferative assay, T-47D; type: cell-based; conditions: Homo sapiens, T47D, 48 h, read-out: IC50 T-47D
Source text: (§1) MDA-MB-231 cell line is classified as a triple-negative/basal-like cell line, which is hormone (estrogen and progesterone)-receptor negative and HER2 negative, whereas T-47D is considered as hormone-receptor positive and HER2 negative breast cancer cell line.
(§2) 2. Anti-proliferative activities
(§3) The three examined human cancer cell lines; T-47D (breast cancer), MDA-MB-231 (breast carcinoma) and SKOV-3 (ovarian cancer), as well as the non-tumorigenic human breast cell line (MCF-10A) have been obtained from American Type Culture Collection (ATCC). The cells were maintained in Dulbecco's modified Eagle's medium (DMEM) supplemented with 10% heat inactivated fetal calf serum (GIBCO), penicillin (100 U/ml) and streptomycin (100 µg/ml) at 37 °C in humidified atmosphere containing 5% CO2. Cells at a concentration of 0.50 x 106 were grown in a 25 cm2 flask in 5 ml of culture medium.
(§4) The anti-proliferative activity of the tested pyridazines 11a-r was measured in vitro using the Sulfo-Rhodamine-B stain (SRB) assay. Briefly, Cells were inoculated in 96-well microtiter plate (5X104 cells/ well) for 24 h before treatment with the tested pyridazines to allow attachment of cell to the wall of the plate. Tested pyridazines were dissolved in DMSO at 1 mg/ml immediately before use and diluted to the appropriate volume just before addition to the cell culture. Different concentrations of tested pyridazines and staurosporine were added to the cells (three wells were prepared for each individual dose). Cells were incubated with the pyridazines for 48 h at 37°C and in atmosphere of 5% CO2. After 48 h cells were fixed, washed, and stained for 30 min with 0.4% (w/v) SRB dissolved in 1% acetic acid. Unbound dye was removed by four washes with 1% acetic acid, and attached stain was recovered with Tris-EDTA buffer. Color intensity was measured in an ELISA reader. The relation between percent of surviving fraction and drug concentration is plotted to get the survival curve for each cell line. The concentration required for 50% inhibition of cell viability (IC50) was calculated. […]

MDA-MB-231 cells [2] = experiment: SRB anti-proliferative assay, MDA-MB-231; type: cell-based; conditions: Homo sapiens, read-out: IC50 MDA-MB-231
Source text: as §1, §2, §3, §4

CDK2/CyclinA2 = CDK2/CyclinA2 (Homo sapiens, UniProt P24941); experiment: In vitro CDK2 kinase assay (CDK2/CyclinA2 Kinase Enzyme System)
Source text: CDK Kinase Inhibitory Activity

MDA-MB-231 cells [3] = experiment: Annexin V-FITC/PI apoptosis assay, MDA-MB-231; type: cell-based, human; conditions: MDA-MB-231, treated at IC50, 48 h; for Annexin V+ cells, late apoptotic phase (upper right quadrant): control 0.24%; for Annexin V+ cells, early apoptotic phase (lower right quadrant): control 0.56%
Method: (§5) Both T-47D and MDA-MB-231 cells were treated with pyridazines 11l and 11m at their IC50s for 48 h. The obtained results have been depicted in Figures 4–6.
(§6) 4. Annexin V-FITC Apoptosis Assay
(§7) Phosphatidylserine externalization was assayed using Annexin V-FITC/PI apoptosis detection kit (BD Biosciences, USA) according to the manufacturer’s instructions. Breast cancer T-47D and MDA-MB-231 cells were cultured to a monolayer then treated with pyridazines 11l and 11m at their IC50 concentration. Briefly, cells were then harvested via trypsinization, and rinsed twice in PBS followed by binding buffer. Moreover, cells were re-suspended in 100 μL of binding buffer with the addition of 1 μL of FITC-Annexin V followed by an incubation period of 30 min at 4 °C. Cells were then rinsed in binding buffer and resuspended in 150 μL of binding buffer with the addition of 1 μL of DAPI (1 μg/μL in PBS). Cells were then analyzed using the flow cytometer BD FACS Canto II and the results were interpreted with FlowJo7.6.4 software (Tree Star, Ashland, OR, USA). […]
(§8) Data are presented as means ± S.D. Individual groups were compared using the two-tailed independent Student’s t-test. Multiple group comparisons were carried out using one-way analysis of variance (ANOVA) followed by the Tukey–Kramer test for post-hoc analysis. Statistical significance was accepted at a level of p < 0.05. All statistical analyses were performed using GraphPad InStat software, version 3.05 (GraphPad Software, Inc., La Jolla, CA, USA). Graphs were sketched using GraphPad Prism software, version 5.00 (GraphPad Software, Inc., La Jolla, CA, USA).

MDA-MB-231 cells [4] = experiment: Cell cycle analysis by flow cytometry, MDA-MB-231; type: cell-based, human; conditions: MDA-MB-231, treated at IC50, 24 h, vs untreated control
Source text: (§9) In this study, the efficient anti-proliferative activities of target pyridazines 11a-r towards breast cancer cell lines promoted us to explore and get insights into the plausible cellular mechanisms for these small molecules. To this end, we decided to determine if the target pyridazines exerted their cytotoxic activity through alteration in cell cycle progression and/or induction of apoptosis in both breast cancer T-47D and MDA-MB-231 cells. As a reliable tool, the flow cytometric analysis was utilised to inspect the cell cycle distribution after treatment of T-47D and MDA-MB-231 cells with IC50s of pyridazines 11l and 11m; […]
as §2, §3
The anti-proliferative activity of the tested pyridazines 11a-r was measured in vitro using the Sulfo-Rhodamine-B stain (SRB) assay. Briefly, Cells were inoculated in 96-well microtiter plate (5X104 cells/ well) for 24 h before treatment with the tested pyridazines to allow attachment of cell to the wall of the plate. Tested pyridazines were dissolved in DMSO at 1 mg/ml immediately before use and diluted to the appropriate volume just before addition to the cell culture. Different concentrations of tested pyridazines and staurosporine were added to the cells (three wells were prepared for each individual dose). Cells were incubated with the pyridazines for 48 h at 37°C and in atmosphere of 5% CO2. After 48 h cells were fixed, washed, and stained for 30 min with 0.4% (w/v) SRB dissolved in 1% acetic acid. Unbound dye was removed by four washes with 1% acetic acid, and attached stain was recovered with Tris-EDTA buffer. Color intensity was measured in an ELISA reader. The relation between percent of surviving fraction and drug concentration is plotted to get the survival curve for each cell line. The concentration required for 50% inhibition of cell viability (IC50) was calculated.
Breast cancer T-47D and MDA-MB-231 cells were treated with pyridazines 11l and 11m for 24 h (at their IC50 concentration), and then cells were washed twice with ice-cold phosphate buffered saline (PBS). […]

T-47D cells [5] = experiment: Annexin V-FITC/PI apoptosis assay, T-47D; type: cell-based, human; conditions: treated at IC50, 48 h; for Annexin V+ cells, late apoptotic phase (upper right quadrant): control 0.19%; for Annexin V+ cells, early apoptotic phase (lower right quadrant): control […]
Method: as §5, §6, §7, §8

T-47D cells [6] = experiment: Cell cycle analysis by flow cytometry, T-47D; type: cell-based, human; conditions: treated at IC50, 24 h, vs untreated control
Source text: as §9, §2
as §3, with “medium. […]” for “medium.”
Tested pyridazines were dissolved in […]
The relation between percent of surviving fraction and drug concentration is plotted to get the survival curve for each cell line. The concentration required for 50% inhibition of cell viability (IC50) was calculated.
Breast cancer T-47D and MDA-MB-231 cells were treated with pyridazines 11l and 11m for 24 h (at their IC50 concentration), and then cells were washed twice with ice-cold phosphate buffered saline (PBS). Subsequently, the treated cells were collected by centrifugation, fixed in ice-cold 70% (v/v) ethanol, washed with PBS, re-suspended with 100 μg/mL RNase, stained with 40 μg/mL PI, and analyzed by flow cytometry using FACS Calibur (Becton Dickinson, BD, Franklin Lakes, NJ, USA). The cell cycle distributions were calculated using CellQuest software 5.1 (Becton Dickinson).

MCF-10A cells = experiment: MTT cytotoxicity towards non-tumorigenic breast cells; type: cell-based, human; conditions: for IC50: read-out: IC50 MCF-10A
[7] = system: human colon cancer HT-29 cell line; set-up: method as in PMID 23307426; conditions: in words; cited from earlier work
VEGFR-2 = system: VEGFR-2; set-up: method as in PMID 31852269; conditions: in words; cited from earlier work
[8] = SRB assay, breast cancer T-47D, mean ± SD of three experiments
[9] = SRB assay, 48 h, breast cancer MDA-MB-231, mean ± SD of three experiments

SMILES: CCCCNc1nnc(C(=O)NC2C3CC4CC(C3)CC2C4)cc1C(F)(F)F (stereo not shown) [11b]
melting point: 110 to 111 °C | IC50 (T-47D cells [1]; [8]): 1.37 ± 0.04 µM

SMILES: O=C(NC1C2CC3CC(C2)CC1C3)c1cc(C(F)(F)F)c(N2CCOCC2)nn1 (stereo not shown) [11d]
IC50 (MDA-MB-231 cells [2]; [9]): 2.18 ± 0.07 µM | melting point: 177 to 178 °C

SMILES: O=C(NC1C2CC3CC(C2)CC1C3)c1cc(C(F)(F)F)c(NCc2ccccc2C(F)(F)F)nn1 (stereo not shown) [11e]
IC50 (T-47D cells [1]; [8]): 2.62 ± 0.08 µM | IC50 (CDK2/CyclinA2): 0.151 ± 0.00616 µM

SMILES: CC(C)(C)NC(=O)c1cc(C(F)(F)F)c(NC2CCCC2)nn1 [11f]
melting point: 62 to 63 °C | IC50 (T-47D cells [1]; [8]): 1.94 ± 0.06 µM

SMILES: CC(C)(C)NC(=O)c1cc(C(F)(F)F)c(N2CCOCC2)nn1 [11g]
melting point: 121 to 122 °C

SMILES: O=C(NCC1CCOCC1)c1cc(C(F)(F)F)c(N2CCOCC2)nn1 [11m]
Annexin V+ cells, late apoptotic phase (upper right quadrant) (MDA-MB-231 cells [3]): 15.56% | Annexin V+ cells, early apoptotic phase (lower right quadrant) (MDA-MB-231 cells [3]): 8.19% | IC50 (MDA-MB-231 cells [2]; MDA-MB-231, 48 h): 0.99 ± 0.03 µM | Increase in cell population of G2/M phase (MDA-MB-231 cells [4]): 3.8 fold | Increase in sub-G1 phase (MDA-MB-231 cells [4]): 15.2 fold | Increase in Annexin V+ apoptotic cells (UR + LR) with respect to untreated control (T-47D cells [5]): ~21 fold | Annexin V+ cells, late apoptotic phase (upper right quadrant) (T-47D cells [5]): 10.34% | Annexin V+ cells, early apoptotic phase (lower right quadrant) (T-47D cells [5]): 11.36% | IC50 (T-47D cells [1]): 0.43 ± 0.01 µM | Increase in sub-G1 phase (T-47D cells [6]): 9.5 fold | Rise in cell population of G2/M phase (T-47D cells [6]): 2.5 fold | IC50 (MCF-10A cells; Homo sapiens, MCF-10A): 11.4 ± 0.22 µM

SMILES: CCOC(=O)c1ccc(-c2ccc(N(C)C)nn2)cc1 [III]
Cytotoxic activity towards HT-29 [7]: excellent cytotoxic activity

SMILES: COc1ccc(Nc2ccc(NC(=O)Nc3ccc(Cl)c(C(F)(F)F)c3)cc2)nn1 [IV]
IC50 VEGFR-2 (VEGFR-2): nanomolar range

Now from value to molecule, other results behind:

IC50 (MDA-MB-231 cells [2]; [9]): 2.44 ± 0.08 µM | melting point: 132 to 133 °C | IC50 (T-47D cells [1]; [8]): 1.6 ± 0.05 µM | IC50 (CDK2/CyclinA2): 0.0438 ± 0.00179 µM
SMILES: CC(C)(C)NC(=O)c1cc(C(F)(F)F)c(NCc2ccccc2C(F)(F)F)nn1 [11h]

IC50 (T-47D cells [1]; [8]): 0.44 ± 0.01 µM
SMILES: CCCCNC(=O)c1cc(C(F)(F)F)c(N2CCOCC2)nn1 [11i]

IC50 (MDA-MB-231 cells [2]; [9]): 1.3 ± 0.04 µM | IC50 (T-47D cells [1]; [8]): 1.57 ± 0.05 µM | IC50 (CDK2/CyclinA2): 0.0556 ± 0.00227 µM
SMILES: O=C(NCC1CCOCC1)c1cc(C(F)(F)F)c(NCC2CC2)nn1 [11l]
Annexin V+ cells, late apoptotic phase (upper right quadrant) (MDA-MB-231 cells [3]): 23.60% | Annexin V+ cells, early apoptotic phase (lower right quadrant) (MDA-MB-231 cells [3]): 3.38% | Increase in cell population of G2/M phase (MDA-MB-231 cells [4]): 4.1 fold | Increase in sub-G1 phase (MDA-MB-231 cells [4]): 18.9 fold | Increase in Annexin V+ apoptotic cells (UR + LR) with respect to untreated control (T-47D cells [5]): about 33 fold | Annexin V+ cells, late apoptotic phase (upper right quadrant) (T-47D cells [5]): 27.2% | Annexin V+ cells, early apoptotic phase (lower right quadrant) (T-47D cells [5]): 6.39% | Increase in sub-G1 phase (T-47D cells [6]): 13.8 fold | Rise in cell population of G2/M phase (T-47D cells [6]): 2.7 fold | Mean tumour selectivity index (S. I.) (MCF-10A cells; IC50 for MCF-10A / IC50 average for (T-47D and MDA-MB-231)): 13.7 | IC50 (MCF-10A cells; MTT assay, non-tumorigenic human breast MCF-10A cells): 19.6 ± 0.38 µM

IC50 (MDA-MB-231 cells [2]; [9]): 2.94 ± 0.09 µM
SMILES: O=C(NCc1ccccc1C(F)(F)F)c1cc(C(F)(F)F)c(NCCO)nn1 [11n]
